This is an account of results in publication PMC7955127, “Preclinical small molecule WEHI-7326 overcomes drug resistance and elicits response in patient-derived xenograft models of human treatment-refractory tumors” (Cell Death & Disease, 2021).

One assay has as its system 134036 HGSOC PDX. The assay is described as follows: HGSOC PDX model 134036. Type of assay: in vivo, NSG mice. To be noted: 134036 C5 platinum refractory PDX; 20 mg/kg i.v. biweekly, 6 weeks. The method, then:
(§1) Two to three mm ovarian tumor fragments were subcutaneously engrafted in the left flank of NSG mice and monitored by physical palpation for tumor growth and engraftment. Engrafted tumors were measured twice a week using digital Vernier calipers and maximum tumor diameter + perpendicular tumor length were digitally recorded into the Study Director software (v 3.0/4.0 StudyLog). Tumor volume was calculated automatically (tumor volume (mm^3) = 0.5236 x [larger diameter (mm) x smaller diameter (mm)^2]). Mice were randomized to treatment once their tumor volume reach 180–300 mm^3 and tumor measurements were performed twice a week up to 120 days or when the tumor volume reaches 700 mm^3.
(§2) Time to progressive disease (PD): Defined as the time (in days) from beginning of treatment to an increase in average tumor volume of >20% from the nadir (taken as the smallest average tumor volume recorded since treatment started or 200 mm^3 if nadir was <200 mm^3 as lesions smaller than this are difficult to measure with accuracy). Median time to harvest (TTH): Defined as the time (in days) from the beginning of treatment to day of harvest at 700 mm^3 and the median TTH was calculated and plotted using Kaplan-Meier curves. Based on ref. [27]. […]

The next assay relates to AH406 LUSC PDX. Description: LUSC PDX model AH406. Type of assay: in vivo, NOD-SCID-IL2Rγc–/– mice. To be noted: WEHI-7326 20 mg/kg i.v. biweekly, docetaxel 10 mg/kg i.p. once. The method, then: LUSC PDXs were generated as described in[25]. PDXs at passage 4 were defrosted and washed with PBS before counting. 200,000 to 500,000 cells were then injected in a 50:50 PBS:Matrigel mix into the flanks of NOD-SCID-IL2Rγc–/– male mice. Tumors were measured twice weekly with calipers and treatment started when tumors were between 70–120 mm^3. Mice were assigned to treatment groups based on average tumor volume per group. Mice were culled when tumors reached a volume of 600 mm^3.

The test system of a further assay is MDA-MB-231. Description: Cell cycle analysis (G2/M arrest, PI staining, flow cytometry), MDA-MB-231. Type of assay: cell-based. To be noted: Homo sapiens, MDA-MB-231, read-out: EC50 (G2/M arrest). The method, then:
Fig. 2 Antimitotic activity of WEHI-7326: cancer cell lines and effects on tubulin polymerization. a Dose-dependent antimitotic activity of WEHI-7326, nocodazol and taxol in tumor cell lines SW480 (colorectal) and MDA-MB-231 (breast). Data are presented as percentage of cells in G2/M after overnight incubation with increasing concentrations of inhibitors and PI staining followed by flow cytometry analysis. Mean average of 3 independent experiments ±SEM. b EC50 values (nM) for G2/M arrest on SW480 and MDA-MB-231 cell lines, given as mean average of 3 independent experiments ±SEM. c Western blot analysis of mitotic arrest in SW480 and MDA-MB-231 cells treated with EC50 concentrations of WEHI-7326 or Paclitaxel as marked by expression of phosho-S10 Histone H3 (p-HH3 S10), at different timepoints post treatment. Expression of β-actin provided as loading control. d Cell cycle analysis of LIM1899 cells 72 h post treatment with increasing concentrations of WEHI-7326 as measured by PI staining for DNA content followed by flow cytometry analysis. Sub-G1 represents apoptotic fractions and >4 N cell fractions of mitotic slippage. e Immunofluorescence confocal microscopy of tubulin polymerization in SW480 cells treated by various agents. […] Representative blot of 3 independent experiments. g Tubulin polymerization was assessed in vitro over time using a fluorescence-based tubulin polymerization assay (BK011P). […] Polymerization was measured by excitation at 360 nm and emission at 420 nm. […]
Cells in log growth were supplemented with fresh medium with either vehicle (control) or compound at the stated final concentrations. […] After 1 h incubation at room temperature in the dark, cells were analyzed on a FACScan (Becton and Dickinson) in CellQuest. The percentage of cells in each phase of the cell cycle was determined using ModFit software (Verity, http://www.vsh.com). Early and late apoptotic responses elicited by WEHI-7326 were assessed using Dead Cell Apoptosis Kit (ThermoFisher Scientific) with Annexin V FITC and PI following manufacturer’s instructions. […]
(Flow cytometry measures light scatter and fluorescence of single cells or particles in a stream.)

For a further assay, the system named is 134056 HGSOC PDX. The assay is described as follows: HGSOC PDX model 134056. Type of assay: in vivo, NSG mice. To be noted: 134056 platinum-sensitive PDX; 20 mg/kg i.v. biweekly, 6 weeks. The method, then: as §1, §2

Turning to `COc1ccc(CNc2nc(NCc3ccc(CN)cc3)nc(NN3CC(=O)NC3=O)n2)cc1` [WEHI-7326], the Tumor response result with 134036 HGSOC PDX is “completely unresponsive”. Moreover, the Median survival in the assay on AH406 LUSC PDX came out at 29 days. In addition, the EC50 with MDA-MB-231 was found to be 19 ± 2.2 nM. In the assay with 134056 HGSOC PDX, the “Median time to harvest (TTH)” value turned out to be 78 days and the “Time to progressive disease (PD)” value came out at 56 days.
